Tested on: New Zealand rabbits with normal intraocular pressure
Assay: Intraocular pressure reduction experiment in New Zealand rabbits with normal intraocular pressure
Assay type: in vivo
Conditions: for Intraocular pressure in the left eye: 20 mg/mL group, left eye (saline or solvent); for Intraocular pressure in the right eye: 20 mg/mL in right eye; for Reduction magnitude of intraocular pressure: 20 mg/mL, left minus right eye
Excerpt: Experimental Example 2. Intraocular Pressure Reduction Experiment in New Zealand Rabbits with Normal Intraocular Pressure
Rabbits with normal intraocular pressure were adopted to screen intraocular pressure reduction actions of the potential compounds by eye-drop administration.
Male New Zealand rabbits, aged 97-127 days, weighted 2.65-3.5 kg, purchased from PizhouDongfang Breeding Co. Ltd.
The male New Zealand rabbits were randomly divided into 8 rabbits/per group using a computer-generated randomization method Animals in each group were eye-dropped with different test samples in the right eye, and normal saline or solvent in the left eye, and the volume of the administration was both 50 μL/eye. The intraocular pressure of the animals was measured before administration and in 1, 2, 4, 6, 8 and 10 hours after the administration, respectively.

## Cc1cn(COC(=O)c2ccccc2)c(=O)c2cccc(S(=O)(=O)N3CC[C@H](N)C3)c12 [Compound 64]
1 hour after administration
  Intraocular pressure in the left eye: 11.96 mmHg
  Intraocular pressure in the right eye: 11.54 mmHg
  Reduction magnitude of intraocular pressure: 0.42 mmHg
2 hours after administration
  Intraocular pressure in the left eye: 9.79 mmHg
  Intraocular pressure in the right eye: 7.42 mmHg
  Reduction magnitude of intraocular pressure: 2.37 mmHg
4 hours after administration
  Intraocular pressure in the left eye: 11.50 mmHg
  Intraocular pressure in the right eye: 7.13 mmHg
  Reduction magnitude of intraocular pressure: 4.37 mmHg
6 hours after administration
  Intraocular pressure in the left eye: 11.54 mmHg
  Intraocular pressure in the right eye: 7.38 mmHg
  Reduction magnitude of intraocular pressure: 4.16 mmHg
8 hours after administration
  Intraocular pressure in the left eye: 11.75 mmHg
  Intraocular pressure in the right eye: 7.63 mmHg
  Reduction magnitude of intraocular pressure: 4.12 mmHg
10 hours after administration
  Intraocular pressure in the left eye: 11.88 mmHg
  Intraocular pressure in the right eye: 9.71 mmHg
  Reduction magnitude of intraocular pressure: 2.17 mmHg
Before administration
  Intraocular pressure in the left eye: 11.29 mmHg
  Intraocular pressure in the right eye: 12.04 mmHg
  Reduction magnitude of intraocular pressure: −0.75 mmHg

Reference: patent US12459918B2, “Isoquinolinone derivatives serving as rock protein kinase inhibitors and use thereof” (GUANGZHOU OCUSUN OPHTHALMIC BIOTECHNOLOGY CO., LTD., priority 2019, dated 2025)
